One data set deals with human serum proteins. Put plainly: Protein binding in human serum by Sephadex G-50 size-exclusion chromatography. Format: in vitro ADME. As to the method:
The stability studies with the ^177Lu-labeled peptide analogs were carried out at a concentration of 0.5 nmol peptide/mL in fresh human serum (n = 2) for up to 24 h. A mixture of 0.05 nmol/mL of the radiolabeled peptides in PBS and octanol (1/1, v/v) was used to evaluate the octanol/PBS distribution coefficient (logD7.4; n = 8). To determine the protein binding in human serum by Sephadex G-50 size-exclusion chromatography (GE Healthcare Illustra, Little Chalfont, UK), a 25 µL serum sample was used for different time points after incubation. All steps were performed according to previously published protocols.
In general terms: SEC sorts molecules by how far they enter the pores of the column.

A short description of data set [1]: Biodistribution blocking experiment with 1000-fold excess of non-radiolabeled peptide. Format: in vivo, mice. As to conditions: female, BALB/c nude, mouse, in vivo, iv, total radioactivity, blocking. As to the method: Then, after 7–11 days, when visible tumor xenografts were formed, groups of 5 mice were injected intravenously via a lateral tail vein with ~0.5 MBq of radiolabeled peptide, corresponding to 20 pmol of peptide, in a total volume of ~150 µL in PBS/0.5% BSA. Using an additional mouse per group, a blocking study was performed by co-injecting a 1000-fold molar excess of the respective peptide analog (20 nmol) together with the radiolabeled peptide. For quantification, a 1:1, 1:10 and 1:50 standard was prepared using aliquots of the injection solution mixed with PBS/0.5% BSA. Mice were euthanized by cervical dislocation 4 h after injection. Subsequently, a blood sample was collected, and different tissues were dissected. All samples, as well as the rest of the body were weighed, and the activity measured in the γ-counter together with the standard. Results were expressed as percentage of injected activity per gram of tissue (%IA/g).

SMILES strings stand for the structures.

The term tissue uptake denotes the share of the injected amount in each gram of the tissue.

On to `CCCC[C@@H](C(=O)N[C@@H](CC(=O)O)C(=O)N[C@@H](Cc1cccc2ccccc12)C(N)=O)N(C)C(=O)[C@H](Cc1c[nH]c2ccccc12)NC(=O)CCNC(=O)CC(O)CNC(=O)CC(O)CNC(=O)CN1CCN(CC(=O)O)CCN(CC(=O)O)CCN(CC(=O)O)CC1` (stereo partly shown) [[^177Lu]Lu-2, metal not drawn], for which the “change in binding to human serum proteins compared to [177Lu]Lu-DOTA-MGS5” value in the data set on human serum proteins is on record as 2-fold decrease. Besides, the “decrease in protein binding compared to [177Lu]Lu-DOTA-MGS5” value in the data set with human serum proteins (human, serum) is reported as ~ 50%. The tissue uptake at 4 h in data set [1] (uptake in A431-CCK2R xenograft) is 0.39 %ID/g; in data set [1] (uptake in A431-mock xenograft), 0.16 %ID/g; in data set [1] (uptake in blood), 0.02 %ID/g; in data set [1] (uptake in femur), 0.09 %ID/g; in data set [1] (uptake in heart), 0.04 %ID/g; in data set [1] (uptake in lung), 0.2 %ID/g. Moreover, the tissue uptake at 4 h turned out to be 0.05 %ID/g in data set [1] (uptake in pancreas) and 0.09 %ID/g in data set [1] (uptake in stomach).
